Values after ≈ are worked out from the molar mass of the structure shown. Read-outs that look alike come from different tables or passages of the source. A value given as a limit tells only on which side of the number the result lay.

The solubility is the dissolved amount per volume that the medium holds.

Series [1] has as its system H460 cells. The series can be described thus: DNA fiber analysis of replication fork dynamics. The format is cell-based, human. Here is the method:
Analysis of DNA replication intermediates was performed as previously described with minor modifications ([11], [12]). H460 cells were seeded in 6-well plates at a density of 2 × 10^5 cells. […] After harvesting, the cells were resuspended in PBS at a concentration of 1,000,000 cells/ml, and 2 µl of the cell suspension was mixed with 8 µl of lysis buffer (200 mM Tris-HCl pH 7.5, 50 mM EDTA, 0.5% SDS) on a Superfrost Plus microscope slide (Fisher Scientific). After 6 min of incubation, the slides were tilted at a 45-degree angle to allow cell lysates to slowly run down the slide. After air-drying, the slides were fixed in methanol:acetic acid (3:1) and stored at 4°C. DNA fibers were denatured with 2.5N HCl for 1 h, washed with PBS, and blocked with 5% BSA in PBS-T (PBS + 0.1% Tween-20) for 1 h. […] Excess antibodies were removed by washing with PBS-T 3 times. After air-drying, the slides were mounted onto a coverslip with mounting medium. Fiber tracts were imaged with a Nikon epifluorescence microscope using a 40× oil immersion objective, and 100 fibers for each group were analyzed in ImageJ where the ratios of CldU : IdU were compared using pixel length. Data were analyzed by ANOVA with Bonferroni test for multiple comparisons.
(A) Schematic depiction of experimental design. DNA was pulse-labeled with IdU for 20 min. After IdU removal, replication forks were stalled by the addition of HU or left to replicate with vehicle treatment. HU was removed, and replication was labeled with CldU. Following CldU, cells were treated with the DDRi or vehicle. […] Data presented are combined from three individual experiments (100 fibers analyzed per experiment; 300 fibers total). Red bar indicates the median value of CldU/IdU.

The test system of series [2] is H460 cells. The series is described as follows: Caspase 3/7 apoptosis assay. The note with it: H460, 24 h. The format is cell-based, human. As to the method: Apoptosis induction was determined by activation of Caspases 3 and 7 using the CellEvent™ Caspase-3/7 Green Detection Reagent (Invitrogen). H460 cells were plated at 5 × 10^3 cells/well in black 96-well plates with clear bottoms (Costar) and incubated for 24 h prior to treatments. Cells were treated with the indicated concentration of RPAi or cisplatin for 24 h. The vehicle (DMSO) concentration was held constant at 1% for RPAi treatments. For caspase 3/7 detection, medium was removed and replaced with phosphate buffered saline (PBS) containing 5% fetal bovine serum (FBS) and 2 µM CellEvent™ Caspase-3/7 Green Detection Reagent. Cells were incubated at 37°C/5% CO2 for 1 h, and fluorescence intensity was measured in a BioTek Synergy H1 plate reader (excitation/emission 485/528). Images were captured with an Evos FL2 Auto microscope (Invitrogen) using a 10× objective.
Figure 3 The 329 induction of apoptotic cell death. (A) Analysis of caspase 3/7 activity in H460 cells following 24 h of treatment with 1% DMSO or the indicated concentrations of 329. Fluorescence images were captured as described in the Materials and Methods. (B) Quantification of caspase 3/7 activity. Fluorescence was measured in 96-well plates using a Biotek Synergy H1 plate reader following 24-h incubation with the indicated drugs and concentrations.

Series [3] concerns the target Escherichia coli single strand binding protein (SSB) (Escherichia coli, UniProt P0AGE0). The series is described as follows: EMSA internal specificity control, SSB–ssDNA complex. Conditions: internal specificity control in EMSA. As to the method:
(§1) EMSAs were performed as previously described ([9]). Briefly, reactions were conducted in 20 mM HEPES (pH 7.8), 1 mM DTT, 0.001% NP-40, and 50 mM NaCl. RPAis were suspended in 100% dimethlysulfoxide (DMSO), and DMSO concentration in the final reaction mixture was constant at less than 5%. Purified full-length RPA (120 ng) was incubated with the indicated RPAi or vehicle in reaction buffer for 30 min before the addition of the [^32]P-labeled 34-base ssDNA probe. Reactions were incubated for 5 min at room temperature, and products were separated via 6% native polyacrylamide gel electrophoresis. The bound and unbound fractions were quantified by phosphor-imager analysis using ImageQuant software (Molecular Dynamics, CA), and data were fit by non-linear regression using GraphPad Prism.
(§2) Figure 2 Replication protein A inhibitor (RPAi) inhibitory activity. (A) Chemical structure of RPAi’s 329 and 2004. (B) EMSA analysis of RPA–DNA interaction inhibition by 329 and 2004. Lanes 3–6 in each panel contain 6.25, 12.5, 25, and 50 µM of the indicated RPAi, respectively. The * indicates the position of the Escherichia coli SSB–single-stranded DNA (ssDNA) complex that serves as an internal specificity control. (C) Cell viability of H460 NSCLC cells in response to 329 and 2004.
On the technique in general: Mobility shift assays separate free from complexed probe on a gel.

Series [4] concerns the target T1, RPA–DNA interaction (purified full-length RPA) (Homo sapiens, UniProt P27694).
T1 construct: Purified full-length RPA (120 ng) was incubated with the indicated RPAi
The series is described as follows: EMSA of RPA–DNA interaction inhibition. Format: binding. Conditions: 6.25, 12.5, 25, 50 µM RPAi. As to the method:
as §1, §2

Details of series [5]: method as in PMID 32550990. The note with it: cited from earlier work.
A short description of series [6]: Vehicle/excipient solubility screen. The format is physicochemical. Here is the method:
With favorable potency, cellular activity, plasma stability, and a clear deficit in PK, we initiated a series of studies to assess and optimize a formulation of 329 for in vivo bioavailability. Here, 329 solubility was assessed in a series of additives, excipients, and co-solvents to identify initial favorable vehicles ( Table 2 ). […] A series of different formulations were assessed. The final formulation consisted of polysorbate 80, N-methyl-2-pyrrolidone (NMP), propylene glycol, and PEG 400 (+1.1 mol. eq. HCl added as 12 M HCl), and 329 was soluble up to 20 mg/ml, and 10-fold dilution in PBS was well dispersed with minimal precipitation.

A short description of series [7]: In vivo toxicity analysis.

Escherichia coli single strand binding protein (SSB), sequence (P0AGE0 2-178): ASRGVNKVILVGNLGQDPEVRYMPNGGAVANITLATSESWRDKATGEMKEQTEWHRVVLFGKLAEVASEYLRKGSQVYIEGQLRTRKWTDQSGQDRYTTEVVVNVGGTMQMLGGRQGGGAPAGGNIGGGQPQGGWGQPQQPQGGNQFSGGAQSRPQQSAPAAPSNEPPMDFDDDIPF
T1 sequence (P27694 whole entry): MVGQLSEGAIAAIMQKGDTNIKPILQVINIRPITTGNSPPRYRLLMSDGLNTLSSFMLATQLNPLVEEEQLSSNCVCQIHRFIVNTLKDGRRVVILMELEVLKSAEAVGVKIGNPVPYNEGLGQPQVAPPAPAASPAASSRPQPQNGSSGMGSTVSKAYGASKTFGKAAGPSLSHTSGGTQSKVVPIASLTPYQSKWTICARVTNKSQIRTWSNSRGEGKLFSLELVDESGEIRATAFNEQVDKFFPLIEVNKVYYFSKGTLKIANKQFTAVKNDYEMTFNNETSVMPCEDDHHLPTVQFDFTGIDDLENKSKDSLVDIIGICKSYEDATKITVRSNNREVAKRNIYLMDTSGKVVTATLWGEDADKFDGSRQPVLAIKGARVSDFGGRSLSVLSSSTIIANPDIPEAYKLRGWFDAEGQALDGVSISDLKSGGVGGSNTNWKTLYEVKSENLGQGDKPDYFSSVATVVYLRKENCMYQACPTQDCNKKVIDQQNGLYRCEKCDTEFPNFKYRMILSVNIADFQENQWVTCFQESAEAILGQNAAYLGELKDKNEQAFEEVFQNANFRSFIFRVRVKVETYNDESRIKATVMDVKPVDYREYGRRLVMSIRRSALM
T1 sequence (P15927 whole entry partner): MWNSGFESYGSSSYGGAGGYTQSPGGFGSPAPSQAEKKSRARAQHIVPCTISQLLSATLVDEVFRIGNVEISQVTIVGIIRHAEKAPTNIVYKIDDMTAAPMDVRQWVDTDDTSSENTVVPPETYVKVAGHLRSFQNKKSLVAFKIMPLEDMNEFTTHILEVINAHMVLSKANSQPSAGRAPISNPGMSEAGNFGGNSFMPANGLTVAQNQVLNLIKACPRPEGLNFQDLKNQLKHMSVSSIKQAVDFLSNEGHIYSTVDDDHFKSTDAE
T1 sequence (P35244 whole entry partner): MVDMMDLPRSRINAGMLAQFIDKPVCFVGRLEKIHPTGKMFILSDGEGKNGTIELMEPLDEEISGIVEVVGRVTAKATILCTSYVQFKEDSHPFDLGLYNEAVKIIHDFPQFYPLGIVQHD

With `CCOc1ccc2cc(C3CC(c4ccc(I)cc4)=NN3C(=O)CCCC(=O)NCCCN3CCOCC3)c(Cl)nc2c1` (stereo not shown) [compound 329], the “CldU/IdU signal after HU” value with H460 cells [1] (H460, HU 2.5 mM then 329 50 µM or VE-822 2 µM) was “significant decrease in CldU/IdU signal”. In addition, in the series with H460 cells [1] (H460, without HU, 329 50 µM, VE-822 2 µM, 2 h), the “CldU/IdU, inhibitor alone” value is listed as “minimal effects”. Moreover, the “activation of caspases 3 and 7” value with H460 cells [2] is recorded as “induces cell death via a classical apoptotic pathway”. Besides, the “interaction of E. coli SSB with ssDNA” value in series [3] was “not impacted”. Besides, the “RPA inhibitory activity (RPA–DNA interaction, EMSA)” value in series [4] is given as “potent RPA inhibitory activity”. Moreover, the “solubility, cellular uptake, and physicochemical properties” value in series [5] was “excellent”. Also, the solubility in series [6] (30% SBECD in water, aqueous with cosolvent or surfactant or cyclodextrin, read-out: Solubility) was below 1000 µg/mL; in series [6] (Cremophor EL, aqueous with cosolvent or surfactant or cyclodextrin, read-out: Solubility) it was below 1000 µg/mL; in series [6] (Labrasol, aqueous with cosolvent or surfactant or cyclodextrin, read-out: Solubility), 1100 µg/mL (≈ 1530 µM); in series [6] (NMP (N-methyl-2-pyrrolidone), organic solvent or mixture, read-out: Solubility), 70400 µg/mL (≈ 98000 µM); in series [6] (aqueous buffer, 50 mM sodium acetate pH 4, read-out: Solubility), below 1000 µg/mL; in series [6] (ethanol, organic solvent or mixture, read-out: Solubility), below 1000 µg/mL. Besides, the solubility in series [6] (oleic acid, oil or lipid, read-out: Solubility) was 2400 µg/mL (≈ 3340 µM); in series [6] (organic solvent or mixture, polysorbate 80, NMP, propylene glycol, PEG 400 (+1.1 mol. eq. HCl), read-out: solubility in final formulation), at most 20000 µg/mL; in series [6] (polyethylene glycol 400, organic solvent or mixture, read-out: Solubility), 1200 µg/mL (≈ 1670 µM); in series [6] (polysorbate 80, aqueous with cosolvent or surfactant or cyclodextrin, Polysorbate 8O, read-out: Solubility), below 1000 µg/mL; in series [6] (propylene glycol, organic solvent or mixture, read-out: Solubility) it was 1300 µg/mL (≈ 1810 µM); in series [6] (water, read-out: Solubility), below 1000 µg/mL. Further, the toxicity entry in series [7] (200 mg/kg in the new formulation) was “increased toxicity”; in series [7] (dosing up to 200 mg/kg, suspension in DMSO/Tween), “no overt toxicity”. Moreover, in series [7] (DMSO/Tween formulation, data not shown), the kidney function entry is “no differences from vehicle controls”. In addition, the body weight result in series [7] (up to 200 mg/kg, suspension in DMSO/Tween) was “no significant loss in body weight”.
